We go through 3 compounds from patent US6399782B1, “Benzimidazole inhibitors of fructose 1,6-bisphosphatase” (Metabasis Therapeutics, Inc., priority 1997, dated 2002).

In assay [1] the target is T1, hlFBPase (Homo sapiens, UniProt P09467).
T1 construct: made in house; host or cells: E. coli BL21
T1 sequence (P09467 2-338 limits assumed): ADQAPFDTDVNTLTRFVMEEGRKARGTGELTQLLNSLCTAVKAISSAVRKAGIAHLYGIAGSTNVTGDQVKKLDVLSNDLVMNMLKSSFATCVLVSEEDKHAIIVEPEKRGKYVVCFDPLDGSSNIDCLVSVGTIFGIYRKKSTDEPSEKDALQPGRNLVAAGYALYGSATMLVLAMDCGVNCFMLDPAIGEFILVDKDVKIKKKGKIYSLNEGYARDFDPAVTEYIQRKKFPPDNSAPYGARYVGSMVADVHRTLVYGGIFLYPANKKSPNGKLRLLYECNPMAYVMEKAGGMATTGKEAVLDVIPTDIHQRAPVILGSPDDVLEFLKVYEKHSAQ
The assay is described as follows: AMP site binding (displacement of radiolabeled AMP). As for the experimental part:
To determine whether compounds bind to the allosteric AMP binding site of hlFBPase, the enzyme was incubated with radiolabeled AMP in the presence of a range of test compound concentrations. The reaction mixtures consisted of […] ^3H-AMP (54 mCi/mmol) and […] test compound in 25 mM Tris-HCl, pH 7.4, 100 mM KCl and 1 mM MgCl2. 1.45 mg of homogeneous FBPase (±1 nmole) was added last. After a 1 minute incubation, AMP bound to FBPase was separated from unbound AMP by means of a centrifugal ultrafiltration unit (“Ultrafree-MC”, Millipore) used according to the instructions of the manufacturer. The radioactivity in aliquots (100 μL) of the upper compartment of the unit (the retentate, which contrains enzyme and label) and the lower compartment (the filtrate, which contains unbound label) were quantified using a Beckman liquid scintillation counter. The amount of AMP bound to the enzyme was estimated by comparing the counts in the filtrate (the unbound label) to the total counts in the retentate.

In assay [2] the target is T2, mouse liver FBPase (Mus musculus, UniProt Q9QXD6).
T2 construct: This partially purified fraction was used for enzyme assays; from tissue; host or cells: mouse liver, 45-75% ammonium sulfate fraction
T2 sequence (Q9QXD6 2-338 limits assumed): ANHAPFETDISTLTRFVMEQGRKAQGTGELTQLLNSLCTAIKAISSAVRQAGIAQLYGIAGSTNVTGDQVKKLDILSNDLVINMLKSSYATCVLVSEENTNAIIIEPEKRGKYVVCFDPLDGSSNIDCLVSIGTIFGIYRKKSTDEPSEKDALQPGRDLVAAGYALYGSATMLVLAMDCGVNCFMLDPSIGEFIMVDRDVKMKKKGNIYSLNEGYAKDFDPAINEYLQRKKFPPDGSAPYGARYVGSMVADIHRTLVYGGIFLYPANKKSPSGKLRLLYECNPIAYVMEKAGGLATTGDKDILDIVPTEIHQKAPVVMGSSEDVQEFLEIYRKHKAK
The assay is described as follows: Inhibition of mouse liver FBPase. In kind it is biochemical. To be noted: partially purified mouse liver fraction. The procedure:
Enzymatic activity was measured spectrophotometrically in reactions that coupled the formation of product (fructose 6-phosphate) to the reduction of dimethylthiazoldiphenyltetrazolium bromide (MTT) via NADP and phenazine methosulfate (PMS), using phosphoglucose isomerase and glucose 6-phosphate dehydrogenase as the coupling enzymes. Reaction mixtures (200 μl) were made up in 96-well microtitre plates, and consisted of 50 mM Tris-HCl, pH 7.4, 100 mM KCl, 5 mM EGTA, 2 mM MgCl2, 0.2 mM NADP, 1 mg/ml BSA, 1 mM MTT, 0.6 mM PMS, 1 unit/mL phosphoglucose isomerase, 2 units/mL glucose 6-phosphate dehydrogenase, and 0.150 mM substrate (fructose 1,6-bisphosphate). Inhibitor concentrations were varied from 0.01 μM to 10 μM.
Mouse liver FBPase was obtained by homogenizing freshly isolated mouse liver in 100 mM Tris-HCl buffer, pH 7.4, containing 1 mM EGTA, and 10% glycerol. […] This fraction was redissolved in the homogenization buffer and desalted on a PD-10 gel filtration column (Biorad) eluted with same. This partially purified fraction was used for enzyme assays. Both rat liver and mouse liver FBPase were assayed as described for human liver FBPase.

The subject of assay [3] is 18-hour fasted Sprague Dawley rats. The assay is described as follows: Glucose lowering following oral administration. In kind it is in vivo, rat. The procedure: The compound was prepared in deionized water, adjusted to neutrality with sodium hydroxide, and brought into solution by sonication prior to administration. Blood glucose was measured immediately prior to dosing, and at 1 hour intervals thereafter. Blood samples were obtained from the tail vein, and measurements made by means of a Hemocue glucose analyzer (Hemocue Inc, Mission Viejo, Calif.) used according to the manufacturer's instructions. […] The average glucose lowering in the four responding animals was 62±8.6% relative to saline-treated controls at the 1 hour time point.

In assay [4] the test system is streptozotocin-treated Sprague-Dawley rats. The assay is described as follows: Blood glucose lowering in the streptozotocin-treated rat. In kind it is in vivo. The procedure: Diabetes was induced in male Sprague-Dawley rats (250-300 g) by intraperitoneal injection of 55 mg/kg streptozotocin (Sigma Chemical Co.). Six days later, 24 animals were selected with fed blood glucose values (8 am) between 350 and 600 mg/dL and divided into two statistically equivalent groups. Blood glucose was measured in blood obtained from a tall vein nick by means of a HemoCue Inc. (Mission Viejo, Calif.) glucose analyzer. […] Food was removed from the animals. Blood glucose was measured in each animal four hours after dosing, and a second dose of drug or saline was then administered. Four hours later, a final blood glucose measurement was made.

The test system of assay [5] is Zucker Diabetic Fatty rats. The assay is described as follows: Inhibition of gluconeogenesis in Zucker Diabetic Fatty rats (14C-bicarbonate incorporation into glucose). In kind it is in vivo, rat. To be noted: 50 mg/kg bolus via jugular catheter. The procedure:
Nine Zucker Diabetic Fatty rats (16-weeks old, Genetics Models Inc., Indianapolis, Ind.) were fasted at midnight and instrumented with jugular catheters the following morning. […] After 50minutes a bolus of^14 C-sodium bicarbonate ([…]) was administered via the same route. 20 minutes later, the animals were quickly anesthetized with intravenous pentobarbitol and a blood sample (1.5 mL) was taken by cardiac puncture. Blood (0.5 mL) was diluted into 6 mL deionized water and protein precipitated by addition of 1 mL zinc sulfate (0.3 N) and 1 mL barium hydroxide (0.3 N). The mixture was centrifuged (20 minutes, 1000×g) and 5 mL of the resulting supernatant was then combined with 1 g of a mixed bed ion exchange resin (1 part AG 50W-X8, 100-200 mesh, hydrogen form and 2 parts of AG 1-X8, 100-200 mesh, acetate form) to separate ^14C-bicarbonate from ^14C-glucose. The slurry was shaken at room temperature for four hours and then allowed to settle. An aliquot of the supernatant (0.5 mL) was then counted in 5 mL scintillation cocktail.

For the compound `CCn1c(-c2ccc(P(=O)(O)O)o2)nc2c(N)cccc21` [Compound 12.1, 4-Amino-1-ethyl-2-[2-(5-phosphono)furanyl]benzimidazole], in assay [1] (displacement of 3H-AMP from hlFBPase, read-out: ED50 for AMP displacement), the EC50 was found to be 50 µM. Besides, in assay [1] (result in words), the “displacement of AMP from human liver FBPase (FIG. 3)” value is on record as “displaced AMP from human liver FBPase in a dose dependent manner”.
For `Nc1c(F)ccc2c1nc(-c1ccc(P(=O)(O)O)o1)n2CC1CC1` [Compound 12.61, 4-Amino-5-fluoro-1-cyclopropylmethyl-2-(2-phosphono-5-furanyl)benzimidazole], in assay [2], the half-maximal inhibitory concentration (IC50) is > 20 µM.
In the case of `CCc1cc(F)c(N)c2nc(-c3ccc(P(=O)(O)O)o3)n(CC(C)C)c12` [Compound 12.64], the “blood glucose effect, oral 30 mg/kg” value in assay [3] (oral gavage 30 mg/kg, 18-hour fasted rats) is “without effect”. Besides, the “blood glucose effect, oral 100 mg/kg” value in assay [3] (oral gavage 100 mg/kg, 18-hour fasted rats) is “without effect”. Further, in assay [3] (oral gavage 250 mg/kg, relative to saline-treated controls, 1 hour time point), the “average glucose lowering in the four responding animals” value was 62±8.6%. The “animals with profound hypoglycemia” value in assay [3] (oral gavage 250 mg/kg, within 1 hour of administration) was 4 out of 5. In assay [4] (100 mg/kg intraperitoneally at 0 and 4 h, food removed, 8 hours after the initial dose), the “Blood glucose, mg/dl T = 8h” value turned out to be 271 ± 29 mg/dL. In assay [4] (before dosing, streptozotocin-treated rats), the “Blood glucose, mg/dl T = 0h” value was found to be 488 ± 16 mg/dL. For the same compound, the “reduction of incorporation of 14C-bicarbonate into 14C-glucose” value in assay [5] is “approximately 50%”. In addition, the “14C-Glucose Produced (cpm/mL blood)” value in assay [5] (14C-bicarbonate after 50 minutes, blood 20 minutes later) is 32,827 ± 6130 cpm/mL blood. Also, the “% Glucose Produced” value in assay [5] (saline = 100) is listed as 49.2%.
